These results are taken from patent US8741602B2, “Method for producing glucuronic acid conjugate using Saccharomyces cerevisiae” (Toyama Prefecture, priority 2010, dated 2014).

Molecules are shown by their SMILES. Like-named read-outs stand apart in the source and are kept apart here.

The target of one data set is T1, hUGT1A1 (Homo sapiens, UniProt P22309).
T1 sequence (P22309 28-533): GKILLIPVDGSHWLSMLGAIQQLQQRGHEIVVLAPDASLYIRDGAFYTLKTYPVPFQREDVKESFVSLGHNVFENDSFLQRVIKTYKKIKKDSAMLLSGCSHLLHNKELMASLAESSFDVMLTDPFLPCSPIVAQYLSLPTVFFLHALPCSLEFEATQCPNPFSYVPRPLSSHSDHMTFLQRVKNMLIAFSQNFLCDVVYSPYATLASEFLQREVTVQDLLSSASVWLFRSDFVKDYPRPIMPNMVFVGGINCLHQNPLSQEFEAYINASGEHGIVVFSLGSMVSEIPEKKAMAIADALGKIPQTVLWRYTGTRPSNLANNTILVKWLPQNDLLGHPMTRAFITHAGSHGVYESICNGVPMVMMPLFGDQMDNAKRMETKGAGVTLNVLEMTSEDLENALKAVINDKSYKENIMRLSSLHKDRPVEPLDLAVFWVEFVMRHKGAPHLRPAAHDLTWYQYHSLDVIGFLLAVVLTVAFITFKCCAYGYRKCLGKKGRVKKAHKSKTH
Nature of the data set: Glucuronide production in resting S. cerevisiae AH22 cells co-expressing UDPGDH and UGT1A1. The note with it: UGT1A1.

The target in data set [1] is T2, UGT1A6 (Homo sapiens, UniProt P19224).
T2 sequence (P19224 27-532): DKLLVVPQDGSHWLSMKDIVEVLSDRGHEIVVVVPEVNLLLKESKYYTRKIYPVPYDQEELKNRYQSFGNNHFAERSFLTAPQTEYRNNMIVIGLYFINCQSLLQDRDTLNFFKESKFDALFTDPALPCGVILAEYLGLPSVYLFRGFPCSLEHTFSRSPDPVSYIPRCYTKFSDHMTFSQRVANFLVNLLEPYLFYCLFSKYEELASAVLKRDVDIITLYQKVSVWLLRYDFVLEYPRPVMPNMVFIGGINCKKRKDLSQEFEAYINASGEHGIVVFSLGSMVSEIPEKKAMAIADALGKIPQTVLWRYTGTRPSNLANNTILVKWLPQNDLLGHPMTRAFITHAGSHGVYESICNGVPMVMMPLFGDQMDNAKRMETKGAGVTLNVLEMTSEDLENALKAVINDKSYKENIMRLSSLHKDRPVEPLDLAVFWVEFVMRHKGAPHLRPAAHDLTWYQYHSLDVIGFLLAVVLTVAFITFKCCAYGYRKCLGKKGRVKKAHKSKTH
Nature of the data set: Glucuronide production in resting S. cerevisiae AH22 cells co-expressing UDPGDH and UGT1A6. More on the design: expressed in transfected cells; host or cells: Saccharomyces cerevisiae AH22. The format is cell-based. The note with it: UGT1A6. The protocol:
Each phase was analyzed by UPLC system.
Time course of conversion in the transformant with the highest activity of glucuronidation (AH22: pAUR/At.UDPGDH+pGYR/hUGT1A6) was examined (FIG. 6).
Glucose concentration dependence of conversion in the transformant with the highest activity of glucuronidation (AH22: pAUR/At.UDPGDH+pGYR/hUGT1A6) was examined (FIG. 7).

A further data set addresses T3, UGT1A1 (Homo sapiens, UniProt P22309).
T3 construct: host or cells: Schizosaccharomyces pombe
T3 sequence (P22309 26-533): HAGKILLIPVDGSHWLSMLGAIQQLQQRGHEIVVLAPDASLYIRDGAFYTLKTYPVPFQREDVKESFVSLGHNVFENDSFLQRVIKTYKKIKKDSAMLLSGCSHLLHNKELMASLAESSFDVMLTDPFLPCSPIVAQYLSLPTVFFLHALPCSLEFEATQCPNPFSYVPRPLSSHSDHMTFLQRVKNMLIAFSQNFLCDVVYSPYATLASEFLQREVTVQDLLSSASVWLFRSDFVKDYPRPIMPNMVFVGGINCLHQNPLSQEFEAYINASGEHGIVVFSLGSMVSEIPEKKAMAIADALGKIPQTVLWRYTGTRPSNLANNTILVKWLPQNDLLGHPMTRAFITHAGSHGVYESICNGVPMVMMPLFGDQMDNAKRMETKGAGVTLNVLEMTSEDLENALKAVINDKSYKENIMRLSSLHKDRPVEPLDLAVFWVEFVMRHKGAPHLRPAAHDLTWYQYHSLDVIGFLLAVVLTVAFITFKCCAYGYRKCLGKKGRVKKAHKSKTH
The note with it: fission yeast, Dragan et al.; cited from earlier work.

Data set [2] deals with T2, UGT1A6. More on the design: host or cells: Schizosaccharomyces pombe. The note with it: fission yeast, Dragan et al.; cited from earlier work.
A further data set has as its target T4, CYP2D6 and UGT1A8 (Homo sapiens, UniProt P10635).
T4 construct: expressed in transfected cells; host or cells: Saccharomyces cerevisiae
Nature of the data set: Resting yeast cells with UDPGDH, human UGT and human P450. The format is cell-based. The note with it: human P450 2D6 and human UGT1A8; 1 mM 7-ethoxycoumarine. As to the method:
To achieve the sequential production of hydroxyl intermediate and glucuronidation, co-expression yeast system containing UDPGDH, UGT, and P450 was constructed using combination of expression vectors (pAUR-ratUDPGDH/UGT1A6 and pPYR/humanCYP).
Each phase was analyzed by UPLC system (FIG. 15 and Table 7).
FIG. 15 indicated reverse phase HPLC elution pattern of metabolites from 7-ethoxycoumarine using resting yeast cells containing UDPGDH, human UGT1A8, and human P450 2D6. […] Each hydroxyl intermediates further were metabolized to corresponding glucuronides by human UGT1A8.

Another data set concerns the target T5, ratCYP1A1 and UGT1A6 (UniProt P00185+P19224).
T5 construct: expressed in transfected cells; host or cells: Saccharomyces cerevisiae AH22
T5 sequence (P00185 2-524): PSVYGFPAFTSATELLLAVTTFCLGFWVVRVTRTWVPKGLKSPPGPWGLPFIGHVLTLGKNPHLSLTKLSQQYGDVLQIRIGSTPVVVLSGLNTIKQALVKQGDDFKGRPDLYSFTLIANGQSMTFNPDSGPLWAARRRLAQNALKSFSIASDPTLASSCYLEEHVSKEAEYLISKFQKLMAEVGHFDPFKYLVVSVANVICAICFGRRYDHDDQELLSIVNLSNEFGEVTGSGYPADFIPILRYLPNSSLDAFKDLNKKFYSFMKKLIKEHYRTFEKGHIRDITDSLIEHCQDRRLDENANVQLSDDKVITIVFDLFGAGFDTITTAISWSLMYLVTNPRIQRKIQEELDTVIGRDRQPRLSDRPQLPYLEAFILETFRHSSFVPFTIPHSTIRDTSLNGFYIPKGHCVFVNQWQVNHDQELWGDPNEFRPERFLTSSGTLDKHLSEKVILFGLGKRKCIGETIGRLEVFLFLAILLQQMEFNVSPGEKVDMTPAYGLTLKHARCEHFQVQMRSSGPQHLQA
T5 sequence (P19224 27-532): T2 sequence (P19224 27-532)
Nature of the data set: Resting yeast cells co-expressing UDPGDH, UGT1A6 and rat CYP1A1. The format is cell-based. The note with it: 1 mM 7-ethoxycoumarine, 8% glucose, 30° C., 72 hrs. An excerpt:
In the precursor of most glucuronide, hydroxyl groups are introduced by P450-dependent monooxynenation. To analyze the structure and function of these xenobiotic metabolizing enzymes the expression system of several mammalian P450 and UGT isoforms was constructed in budding yeast cells, Saccharomyces cerevisiae AH22. This in vitro system is able to convert 7-ethoxycoumarine to its glucuronide via hydroxyl intermediate, 7-hydroxycoumarine (Ref 6). Yeast cells lack the ability of production of UDP-glucuronic acid (UDP-GlcUA) from UDP-glucose to synthesize the glucuronide in whole cells. To achieve the sequential production of hydroxyl intermediate and glucuronidation, co-expression yeast system containing UDPGDH, UGT, and P450 was constructed using combination of expression vectors (pAUR-At.UDPGDH/UGT1A6 and pGYR/ratCYP1A1, No. 5 in Table 2). […] Each phase was analyzed by UPLC system (FIG. 13).

[3] abbreviates: budding yeast, 0.5 mM 4-methylumberrferone, 8% (w/v) glucose, 30° C., 24 hrs.

T4 sequence (P10635 whole entry): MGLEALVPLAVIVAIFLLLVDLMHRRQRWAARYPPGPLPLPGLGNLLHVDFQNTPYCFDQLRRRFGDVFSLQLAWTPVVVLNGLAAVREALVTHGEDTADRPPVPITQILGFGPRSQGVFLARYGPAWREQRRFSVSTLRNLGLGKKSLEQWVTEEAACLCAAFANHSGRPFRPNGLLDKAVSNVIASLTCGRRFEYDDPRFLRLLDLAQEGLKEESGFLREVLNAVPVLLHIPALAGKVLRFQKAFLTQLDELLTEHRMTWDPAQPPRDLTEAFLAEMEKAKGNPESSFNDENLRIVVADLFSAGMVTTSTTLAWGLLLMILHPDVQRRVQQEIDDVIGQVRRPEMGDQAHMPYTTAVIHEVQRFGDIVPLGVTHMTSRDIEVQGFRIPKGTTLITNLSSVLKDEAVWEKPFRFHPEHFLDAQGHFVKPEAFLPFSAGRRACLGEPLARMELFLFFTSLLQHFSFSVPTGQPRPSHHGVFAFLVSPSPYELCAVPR
Experimental for hUGT1A1: To confirm the production of 7-hydroxycoumarine glucuronide in the resting yeast cells containing UDPGDH and UGT, transformants were cultivated in selection medium at 30° C., 48 hrs, and the resultant yeast cells were suspended with appropriate buffer solution containing 0.1-1 mM 7-hydroxycoumarine and 1-8% (w/v) glucose. After incubation at 30° C., 24 hrs, 2-fold volume of chloroform:methanol (3:1, v/v) was added to reaction medium containing yeast cells. Centrifugation of extracts was separated to upper water and lower organic phase. Lower organic phase were evaporated and redissolved in 200 μl acetonitrile. Each phase was analyzed by UPLC system. Condition of analysis are described below; column: Cosmosil 2.5C18-MS-II (2.0 mm×100 mm, nacalai tesque), flow rate 0.5 ml/min, detection 320 nm, temperature 45° C. Condition of gradient elution: water-acetonitrile with 0.5% (v/v) trifluoroacetic acid, 10% (v/v) acetonitrile (4 min), 10-70% acetonitrile (6 min), 70-10% acetonitrile (2 min), 10% acetonitrile (4 min).
To confirm the production of quercetin glucuronide in the resting yeast cells containing UDPGDH and UGT (pAUR/At.UDPGDH+pGYR/hUGT1A1), transformants were cultivated in selection medium at 30° C., 48 hrs, and the resultant yeast cells were suspended with 0.1 M potassium phosphate buffer (pH 7.4) containing 0.2 mM quercetin and 8% (w/v) glucose. After incubation at 30° C., 24 hrs, 2-fold volume of chloroform:methanol (3:1, v/v) was added to reaction medium containing yeast cells. Centrifugation of extracts was separated to upper water and lower organic phase. Lower organic phase were evaporated and redissolved in 200 μl acetonitrile. Quercetin glucuronides in yeast cells was isolated and detected by WAKOPAK™ Navi C30-5 (3 mm×150 mm, Wako Chemical)-column-HPLC system with followed condition; flow rate; 0.4 ml/min, detection; 370 nm, temperature 37° C. Condition of gradient elution: water-acetonitrile with 0.5% (v/v) phosphoric acid, 18% (v/v) acetonitrile (10 min), 18-55% acetonitrile (10 min), 55% acetonitrile (5 min).
To compare the production ability of glucuronide in budding (Saccharomyces cerevisiae) and fission yeast (Schizosaccharomyces pombe) containing UDPGDH and UGT, several transformants (No. 4 in Table 2 and transformant with N-terminal modified UGT1A1) were selected for the assay. These transformants were cultivated in selection medium at 30° C., 48 hrs, and the resultant yeast cells were suspended with appropriate buffer solution containing 0.5 mM 4-methylumberrferone and 8% (w/v) glucose. After incubation at 30° C., 24 hrs, 2-fold volume of chloroform:methanol (3:1, v/v) was added to reaction medium containing yeast cells. Centrifugation of extracts was separated to upper water and lower organic phase. Lower organic phase were evaporated and redissolved in 200 μl acetonitrile. Each phase was analyzed by UPLC system.
Condition of analysis are described below; column: COSMOSIL™ 2.5C18-MS-II (2.0 mm×100 mm, Nacalai Tesque), flow rate 0.5 ml/min, detection 320 nm, temperature 45° C. Condition of gradient elution: water-acetonitrile with 0.1% (v/v) trifluoroacetic acid, 10% acetonitrile (4 min), 10-70% acetonitrile (6 min), 70-10% acetonitrile (2 min), 10% acetonitrile (3 min).

Regarding `Cc1cc(=O)oc2cc(O[C@@H]3O[C@H](C(=O)O)[C@@H](O)[C@H](O)[C@H]3O)ccc12.O` [4-metylumberrferone glucuronide, 4-methylumberrferone glucuronide], the “production ratio of glucuronide, budding yeast higher than fission yeast” value came to 10 at hUGT1A1 and 50 on UGT1A6 [1]. Besides, the results for the production of glucuronide per biomass dry weight at hUGT1A1 (budding yeast) and at UGT1A1 were 2.6 µmol/day/g dry weight and 0.14 µmol/day/g dry weight, respectively. The production of glucuronide on hUGT1A1 (setting [3]) is 20.2 µM/day; at UGT1A6 [1] (setting [3]), 195.7 µM/day; on UGT1A1 it was 1.8 µM/day; at UGT1A6 [2], 3.5 µM/day.
For the compound `CCOc1ccc2ccc(=O)oc2c1` [7-ethoxycoumarine], the “metabolites formed (FIG. 15)” value on CYP2D6 and UGT1A8 was “metabolized to 7-hydroxycoumarine or 3-hydroxy-7-ethoxycoumarine by human P450 2D6”. The “sequential P450-UGT metabolism (FIG. 13)” value on ratCYP1A1 and UGT1A6 is “deethylated by P4501A1 and the resultant 7-hydroxycoumarine (●) was glucuronidated by UGT1A6 to its glucuronide”.
